Ends that are not written are not given here.
Key:
[1] = target: purified HLA molecules (corresponding predicted allele); test: MHC peptide-binding assay, summary over alleles; design: species or system human
[2] = test system: PBMC of healthy adult blood donors from Colombo, Sri Lanka; test: Ex vivo IFNγ ELISPOT, HLA-matched PBMC of Sri Lankan blood donors; format: cell-based, human; design: Total Response per epitope: unit not given here; details: for # donors responded: number of donors responding to the epitope; for T cell response [SFC]: ex vivo IFNγ SFC/10^6 PBMC; for # of responders: responding donors, HLA allele(s)
[3] = restricting HLA allele and serotype as given
[4] = total over responding donors, restricting HLA allele and serotype as given
[5] = IFNγ ELISPOT response summed over responding donors, per epitope
[6] = HLA-matched PBMC, proteome-wide screen
[7] = HLA allele, supertype and serotype
[8] = summed IFNγ ELISPOT response per epitope, HLA allele and serotype as given

| Compound | # donors responded [2, 3] | T cell response [SFC] ([2]; per epitope) | # of responders [2] | Total Response per epitope [2, 4] | also measured |
| --- | --- | --- | --- | --- | --- |
| CC[C@H](C)[C@H](NC(=O)[C@@H]1CCCN1C(=O)CNC(=O)[C@@H](NC(=O)[C@H](C)N)[C@@H](C)O)C(=O)N[C@@H](CC(C)C)C(=O)N[C@H](C(=O)N[C@@H](CC(C)C)C(=O)N[C@@H](Cc1c[nH]c2ccccc12)C(=O)O)[C@@H](C)O | 2 | 938 | 2 | 938.3 | IC50 ([1]; allele B*5801): 13 nM |
| CC[C@H](C)[C@H](NC(=O)[C@@H]1CCCN1C(=O)CNC(=O)[C@@H](NC(=O)[C@H](C)N)[C@@H](C)O)C(=O)N[C@@H](CO)C(=O)N[C@H](C(=O)N[C@@H](CC(C)C)C(=O)N[C@@H](Cc1c[nH]c2ccccc12)C(=O)O)[C@@H](C)O | 2 | 236 | 2 | 235.5 | IC50 ([1]; allele B*5801): 1 nM |
| CC(C)C[C@H](NC(=O)[C@@H](NC(=O)[C@H](Cc1c[nH]c2ccccc12)NC(=O)[C@H](C)NC(=O)[C@H](CO)NC(=O)[C@H](C)NC(=O)[C@@H]1CCCN1C(=O)[C@@H](N)Cc1c[nH]cn1)[C@@H](C)O)C(=O)N[C@@H](Cc1ccc(O)cc1)C(=O)O | 3 | – | – | 281.7 | IC50 ([1]; allele B*3501): 6 nM |
| CC[C@H](C)[C@H](N)C(=O)N[C@@H](CS)C(=O)N[C@@H](CO)C(=O)N[C@@H](C)C(=O)N[C@H](C(=O)N1CCC[C@H]1C(=O)N[C@H](C(=O)N[C@@H](Cc1c[nH]cn1)C(=O)N[C@@H](Cc1c[nH]c2ccccc12)C(=O)O)C(C)C)C(C)C | 1 | – | – | 115.0 | IC50 ([1]; allele B*5801): 6 nM |
| CC[C@H](C)[C@H](NC(=O)[C@H](CCC(N)=O)NC(=O)[C@@H](N)CCCCN)C(=O)N[C@@H](C)C(=O)N[C@@H](CC(N)=O)C(=O)N[C@@H](CCC(=O)O)C(=O)N[C@@H](CC(C)C)C(=O)N[C@@H](CC(N)=O)C(=O)N[C@@H](Cc1ccc(O)cc1)C(=O)O | 1 | – | – | 26.7 | IC50 ([1]; allele B*1501): 9 nM |
| CSCC[C@H](NC(=O)[C@@H](NC(=O)[C@H](Cc1c[nH]cn1)NC(=O)[C@H](Cc1ccccc1)NC(=O)[C@@H](NC(=O)CNC(=O)[C@H](CCC(=O)O)NC(=O)[C@@H](N)CCSC)C(C)C)[C@@H](C)O)C(=O)N[C@@H](Cc1c[nH]c2ccccc12)C(=O)O | – | – | – | – | IC50 ([1]; allele B*4403): 3 nM |
| CC[C@H](C)[C@H](NC(=O)CNC(=O)[C@H](CCC(=O)O)NC(=O)CNC(=O)[C@H](CCC(=O)O)NC(=O)[C@H](CCSC)NC(=O)[C@H](CCC(N)=O)NC(=O)[C@@H](N)CCCNC(=N)N)C(=O)N[C@@H](Cc1ccccc1)C(=O)O | – | – | – | – | IC50 ([1]; allele B*1501): 6 nM; Total Response per epitope [2, 5]: 108.3; # donors responded [2, 6]: 1 |
| CSCC[C@H](NC(=O)[C@H](CCC(N)=O)NC(=O)[C@@H](N)CCCNC(=N)N)C(=O)N[C@@H](CCC(=O)O)C(=O)NCC(=O)N[C@@H](CCC(=O)O)C(=O)NCC(=O)N[C@H](C(=O)N[C@@H](CC(C)C)C(=O)O)C(C)C | – | – | – | – | IC50 ([1]; allele B*1501): 19 nM; Total Response per epitope [2, 5]: 56.7; # donors responded [2, 6]: 1 |
| CSCC[C@H](NC(=O)[C@H](CCCCN)NC(=O)[C@H](CC(C)C)NC(=O)[C@@H](NC(=O)[C@@H](N)CCCNC(=N)N)C(C)C)C(=O)N[C@H](C(=O)N[C@@H](CCC(=O)O)C(=O)N1CCC[C@H]1C(=O)N[C@@H](Cc1c[nH]c2ccccc12)C(=O)O)C(C)C | – | – | – | – | IC50 ([1]; allele B*5801): 1 nM; Total Response per epitope [2, 5]: 150.0; # donors responded [2, 6]: 1 |
| CC[C@H](C)[C@H](NC(=O)CNC(=O)[C@H](CCC(=O)O)NC(=O)[C@@H]1CCCN1C(=O)[C@@H](N)[C@@H](C)O)C(=O)N[C@H](C(=O)N1CCC[C@H]1C(=O)N[C@@H](CO)C(=O)N[C@@H](CCSC)C(=O)O)[C@@H](C)CC | – | 2717 | 5 | – | IC50 ([1]; allele B*3501): 8 nM; Total Response per epitope [2, 5]: 2716.7; # donors responded [2, 6]: 5 |
| CC(C)C[C@H](NC(=O)[C@H](CCC(N)=O)NC(=O)[C@@H](NC(=O)[C@H](Cc1ccc(O)cc1)NC(=O)[C@@H](N)C(C)C)[C@@H](C)O)C(=O)N[C@@H](CS)C(=O)N[C@@H](CC(=O)O)C(=O)N[C@@H](Cc1c[nH]cn1)C(=O)N[C@@H](CCCNC(=N)N)C(=O)O | – | – | – | – | IC50 ([1]; allele A*3301): 1900 nM; # donors responded [2, 7]: 1; Total Response per epitope [2, 8]: 35.0 |
| CC(C)[C@H](NC(=O)[C@H](CCC(=O)O)NC(=O)[C@H](Cc1ccc(O)cc1)NC(=O)[C@H](CO)NC(=O)CNC(=O)[C@H](Cc1c[nH]cn1)NC(=O)[C@H](Cc1ccc(O)cc1)NC(=O)[C@H](C)NC(=O)[C@@H](N)Cc1c[nH]c2ccccc12)C(=O)O | – | – | – | – | IC50 ([1]; allele B*5101): 11 nM; # donors responded [2, 7]: 1; Total Response per epitope [2, 8]: 25.0 |
| ATGPITTLW | 1 | 505 | 1 | 505.0 | IC50 ([1]; allele B*5801): 5 nM |
| CLIPTAMAF | 1 | 67 | 1 | 66.7 | – |
| DPASIAARGY | 9 | 2383 | 9 | 2383.3 | IC50 ([1]; allele B*3501): 5620 nM |
| DPRRCLKPV | 2 | – | – | 556.7 | – |

| Compound | # donors responded [2, 3] | T cell response [SFC] ([2]; per epitope) | # of responders [2] | Total Response per epitope [2, 4] | also measured |
| --- | --- | --- | --- | --- | --- |
| DTTPFGOOR | – | 3260 | 8 | – | – |
| EERDIPERSW | 1 | – | – | 133.3 | – |
| EPISYDPKF | 1 | – | – | 340.0 | – |
| FAGPVSQHNY | 3 | – | – | 428.3 | – |
| FLMVLLIPEP | 1 | – | – | 28.3 | – |
| FTILALFLAH | 8 | 1715 | 8 | 1715.0 | – |
| GAMLFLISGK | 1 | – | – | 23.3 | – |
| GEFRLRGEQR | 3 | 1373 | 3 | 1373.3 | – |
| GEGLHKLGY | 2 | – | – | 413.3 | IC50 ([1]; allele B*4403): 281 nM |
| GFFLRKLTSR | 1 | – | – | 81.7 | – |
| GPLVAGGLL | 3 | – | – | 748.3 | – |
| HPGAGKTKRY | 10 | 3047 | 10 | 3046.7 | – |
| IANOATVLM | – | 1518 | 7 | – | – |
| IANQAAILM | 1 | – | – | 58.3 | – |
| IETTILDVDL | – | – | – | – | Total Response per epitope [2, 5]: 1413.3; # donors responded [2, 6]: 2 |
| IGIGVLLTW | 1 | – | – | 378.3 | – |
